Test results published in patent publication US20140094446A1, “Cyclic Amino Acids for the Treatment of Pain” (Therexcell Pharma Inc., priority 2008, published 2014).
Entries after “also recorded” stand apart in the source; their conditions may differ. Marks after values point to notes of the source that are not given here.

What was measured:
[1] = test system: mice; experiment: Sedation observed during the formalin foot test, intrathecal application
Description: At the same time as the analgesia was accessed, the sedation effects of ACBC were determined in the acute and chronic peripheral pain formalin foot model. […] The mice were monitored for 40 min for sedation. aCSF and morphine controls were also tested. The presence or absence of sedation was determined by an observer blinded to the treatment based on degree of spontaneous activity, posture and response to normal stimuli.

[2] = test system: formalin foot mice; experiment: Formalin foot acute and chronic peripheral pain model, intrathecal application
[3] = test system: Neurons of the ventrobasal nuclei (thalamocortical neurons); experiment: Current- and voltage-clamp recording of thalamic neurons in in vitro slice preparations; conditions: for equilibrium potential for the drug (intersection of drug and control I-V curves): voltage clamp, vs aCSF control curve
[4] = test system: formalin foot mice; experiment: Formalin foot acute and chronic peripheral pain model, subcutaneous injection, up and down method; type: in vivo; conditions: Mus musculus, sc; subcutaneously, 5 minutes prior to formalin; up and down method of Dixon and Mood; block = 60% decrease of cumulated licking; read-out: ED50 for the reduction of paw licking by 60%
Description: This model involves pre-treatment with the test compound and injection of formalin (5% in 20 microliters) into the right hindpaw of mice. ACBC was injected subcutaneously 5 minutes prior to formalin injection. […] The up and down method of Dixon and Mood was used to establish the ED50.

[5] = ACBC 5 μL of 250 μM 5 minutes before formalin 5% in 20 μL hindpaw, N=5, P<0.05 vs control
[6] = ACBC 1 μM, normalized to control 5 minutes prior to drug application, single neuron

**Q.** Which “sedation / gross appearance and behavior (in words)” value ([1]; intrathecal, acute and chronic phase of formalin foot test) does the source give for `CN1CC[C@]23c4c5ccc(O)c4O[C@H]2[C@@H](O)C=C[C@H]3[C@H]1C5` [Morphine, reference compound] here?
**A.** nearly immobile

**Q.** What about the “Number of mice with sedation” value ([1]; of 5 mice, intrathecal (ACBC 5 μL of 250 μM), monitored 40 min, blinded observer) of the same molecule?
**A.** 5

**Q.** What about the “phase I licking (early phase, acute pain)” value [2, 5] of the same molecule?
**A.** Morphine <control

**Q.** Which results are given for `NCC(=O)O` [Glycine, reference compound]?
**A.** slope of the I-V curve ([3]; Glycine 150 μM): increased the slope of the I-V curve; equilibrium potential for the drug (intersection of drug and control I-V curves) ([3]; Glycine 150 μM): −53 mV

**Q.** What does the source list for `NC1(C(=O)O)CCC1` [ACBC, 1-amino-cyclobutane-1-carboxylic acid]?
**A.** slope of the I-V curve ([3]; ACBC 1 μM): increased the slope of the I-V curve; holding current 20 minutes after application ([3]; ACBC 1 μM, 3 min application, voltage-clamped at −60 mV, control 33 pA): 153 pA; Input resistance (Ri) [3, 6]: increase in membrane input resistance; also recorded: decreased; Membrane potential (Vm) [3, 6]: decreased; tonic firing evoked by current pulse injection ([3]; ACBC 1 μM, ventrobasal thalamus, holding potential −60 mV): depressed action potential firing; also recorded: depressed tonic firing; equilibrium potential for the drug (intersection of drug and control I-V curves) ([3]; ACBC 1 μM): −92 mV; persistence of induced outward current ([3]; voltage clamped neurons): greater than 60 minutes; behavioral toxicity ([1]; mouse, in vivo): no observed behavioral toxicity; sedation / gross appearance and behavior (in words) ([1]; mouse, in vivo): No sedation occurred; Number of mice with sedation ([1]; mouse, in vivo, 40 min): 0*; ED50 [4]: 94 mg/kg; phase I licking (early phase, acute pain) [2, 5]: significantly reduced; also recorded: greatly reduces; phase II licking (late phase, chronic pain) [2, 5]: significantly reduced; also recorded: greatly reduces; cumulative paw licking ([2]; ACBC 5 μL of 250 μM, monitored 40 minutes, p<0.05): significantly reduced; analgesia compared with morphine, acute and chronic phases ([2]; formalin foot test): equal to that produced by morphine
